According to patent EP4079295A1, “COMPOSITION HAVING IMPROVED SOLUBILITY AND BIOAVAILABILITY OF OLAPARIB” (Samyang Holdings Corporation, priority 2019, dated 2021):
Values after ≈ are worked out from the molar mass of the structure shown.

Experiments:
[1] = Test Example 1: drug solubility, simple mixture versus solid dispersion; type: physicochemical; details: thermodynamic from solid, 20 ml, amount corresponding to 400 mg of Olaparib, 37°C, 100 rpm
Method: To 20 ml of distilled water and pH 1.2 buffer, each of the solid dispersions of Example 1 and 4 and the simple mixtures of Comparative Examples 2 and 3 corresponding to 400 mg of Olaparib was added, and stirred in an incubator at 37°C with 100 rpm for 1 hour. The test solution was filtered with RC syringe filter (0.2 µm) and 1 mL of the filtered solution was taken and diluted with 2 mL of the following diluent solution, and then the amount was measured according to Olaparib amount analysis method.
• 1) Diluent solution preparation Diluent solution - water (DW): acetonitrile (CAN)=1:1 • 2) Operation • Detector: UV absorption spectrometer 254 nm • Column: Nova-Pak C18 Column, 60Å, 4 µm, 3.9 mm × 150 mm • Flow rate: 1.2 ml/min • Injection amount: 5 µl • Column temperature: 35°C • Run time: 16 min • Mobile phase [Table 4]

[2] = cited from earlier work

- solubility at 1 h ([1]; simulated gastric fluid, pH 1.2 buffer): 100 µg/mL (≈ 230 µM)
- solubility at 1 h ([1]; water (distilled water)): 100 µg/mL (≈ 230 µM)
Structure (SMILES): O=C(c1cc(Cc2n[nH]c(=O)c3ccccc23)ccc1F)N1CCN(C(=O)C2CC2)CC1 [Olaparib]
- water solubility [2]: 100 to 130 µg/mL
- pKa ([2]; weak acidic): 12.07
